Like-named read-outs stand apart in the source and are kept apart here.
System: 407 cancer cell lines
Assay: Cell viability of cancer cell lines (IC50), CellTiter-Glo Viability Assay, 96 h
Type: cell-based
Conditions: for IC50: read-out: Absolute IC50
Description: Viability was determined by using the 50% inhibitory concentration (IC50) as determined with the CellTiter-Glo® Viability Assay (Promega).
Experiments were initiated by first thawing and equilibrating the CellTiter-Glo® Buffer to room temperature. The lyophilized CellTiter-Glo® Substrate was also equilibrated to room temperature. The lyophilized substrate was reconstituted with the CellTiter-Glo® buffer to form the CellTiter-Glo® Reagent.
Cells were harvested during the logarithmic growth period, counted, and the cell concentration adjusted to 4.44×10^4 cells/mL using culture medium.
Cells were allowed to grow overnight and the following day, the TO reading was obtained by adding 10 μL culture medium to each well of Plate A. The plate was allowed to equilibrate at room temperature for thirty minutes, after which 50 μL CellTiter-Glo® reagent was added to each well. The contents were mixed for 5 min on an orbital shaker to induce cell lysis. Plates were incubated for 20 minutes to stabilize the luminescent signal and the TO luminescence recorded.
Test plate B was incubated for 96 h in the humidified incubator at 37° C. with 5% CO2.
Following the incubation, the plate was equilibrated at room temperature for thirty minutes. CellTiter-Glo® (50 μL) was added to each well of the plate and contents mixed for five minutes on an orbital shaker to induce cell lysis. The luminescent signal was allowed to stabilize at room temperature for 20 minutes and the luminescence recorded.
IC50 (EC50) was calculated using a dose-response curve, fitted using a nonlinear regression model with a sigmoidal dose response. Survival rate was calculated using the formula:
The Surviving rate (%)=(LumTest article−LumMedium control)/(LumNon-treated−LumMedium control)×100%.
Absolute IC50 (EC50) was calculated according to the dose-response curve generated by the statistical software (GraphPad Prism 5.0).

Cc1nn(-c2nc(-c3ccc(C(F)(F)F)cc3)c(SC(C)C)s2)c(C(=O)O)c1-c1cccc(F)c1 [Compound A197, 4-(3-fluorophenyl)-1-(5-(isopropylthio)-4-(4-(trifluoromethyl)phenyl)thiazol-2-yl)-3-methyl-1H-pyrazole-5-carboxylic acid]
IC50 (Homo sapiens, TT, 96 h, TT cells, 96 h): 2070 nM
IC50 (Homo sapiens, Toledo, 96 h, Toledo cells, 96 h): 1450 nM
IC50 (Homo sapiens, U2OS, 96 h, U-2 OS cells, 96 h): 16800 nM
IC50 (Homo sapiens, U2932, 96 h, U-2932 cells, 96 h): 460 nM
IC50 (Homo sapiens, U-87 MG, 96 h, U-87 MG cells, 96 h): 24900 nM
IC50 (Homo sapiens, U-251, 96 h, U251 cells, 96 h): 280 nM
IC50 (Homo sapiens, U-937, 96 h, U-937 cells, 96 h): 410 nM
IC50 (Homo sapiens, UACC-812, 96 h, UACC-812 cells, 96 h): > 30000 nM
IC50 (Homo sapiens, UMUC3, 96 h, UM-UC-3 cells, 96 h): 930 nM
IC50 (Homo sapiens, UO-31, 96 h, UO.31 cells, 96 h): > 30000 nM
IC50 (Homo sapiens, WM 266-4, 96 h, WM-266-4 cells, 96 h): > 30000 nM
IC50 (Homo sapiens, WSU-NHL, 96 h, WSU-NHL cells, 96 h): 480 nM
IC50 (Homo sapiens, WSUDLCL2, 96 h, WSU-DLCL2 cells, 96 h): 680 nM
IC50 (Homo sapiens, Y79, 96 h, Y-79 cells, 96 h): > 30000 nM
IC50 (Homo sapiens, Z-138, Z-138): 1500 nM
IC50 (Homo sapiens, ZR-75-1, ZR-75-1): 7810 nM
IC50 (Homo sapiens, ZR-75-30, 96 h): > 30000 nM
% inhibition at top conc. (HuCCT1, 96 h): 51.19%
% inhibition at top conc. (Ishikawa, 96 h): 82.51%
IC50 (JAR): 670 nM
% inhibition at top conc. (JEG-3 cells, 96 h): 52.54%
IC50 (JHH1, 96 h, JHH-1 cells, 96 h): > 30000 nM
IC50 (JHH7, 96 h, JHH-7 cells, 96 h): 660 nM
IC50 (JHH-4, 96 h, JHH-4 cells, 96 h): 1500 nM
IC50 (JVM13, JVM-13): 390 nM
% inhibition at top conc. (KATO III, 96 h): 45.89%
IC50 (KPL4, KPL-4): 250 nM
IC50 (L-82, L-82): 3780 nM
% inhibition at top conc. (LNCaP clone FGC, 96 h): 76.07%
IC50 (Li-7, Li-7): 850 nM
% inhibition at top conc. (MDA-MB-436, 96 h): 54.72%
% inhibition at top conc. (MKN1 cells, 96 h): 53.97%
% inhibition at top conc. (MKN45, 96 h): 14.51%
% inhibition at top conc. (MKN74 cells, 96 h): 52.90%
IC50 (MM.1R): 1190 nM
IC50 (MOLM16, 96 h, MOLM-16 cells, 96 h): 350 nM
IC50 (MS751, 96 h, MS751 cells, 96 h): > 30000 nM
IC50 (NAMALWA CSN/70): 490 nM
% inhibition at top conc. (NCI-H69 cells, 96 h): 21.37%
% inhibition at top conc. (NCI-H82, 96 h): 92.52%
% inhibition at top conc. (NCI-H146 cells, 96 h): 37.67%
% inhibition at top conc. (NCI-H209 cells, 96 h): 45.11%
% inhibition at top conc. (NCI-H292 cells, 96 h): 54.61%
IC50 (NCI-H322, 96 h, NCI-H322 cells, 96 h): 290 nM
% inhibition at top conc. (NCI-H358 cells, 96 h): 68.44%
% inhibition at top conc. (NCI-H446 cells, 96 h): 51.21%
% inhibition at top conc. (NCI-H460 cells, 96 h): 49.03%
% inhibition at top conc. (NCI-H520 cells, 96 h): 76.45%
% inhibition at top conc. (NCI-H526 cells, 96 h): 44.57%
% inhibition at top conc. (NCI-H727 cells, 96 h): 35.60%
IC50 (NCI-H820, 96 h, NCI-H820 cells, 96 h): 350 nM
% inhibition at top conc. (NCI-H820 cells, 96 h): 78.69%
% inhibition at top conc. (NCI-H1048 cells, 96 h): 66.49%
% inhibition at top conc. (NCI-H1155 cells, 96 h): 79.14%
% inhibition at top conc. (NCI-H1299 cells, 96 h): 83.01%
IC50 (NCI-H1435, NCI-H1435): 390 nM
IC50 (NCI-H1568, 96 h, NCI-H1568 cells, 96 h): 270 nM
% inhibition at top conc. (NCI-H1648 cells, 96 h): 57.33%
% inhibition at top conc. (NCI-H1651 cells, 96 h): 67.37%
IC50 (NCI-H1688, NCI-H1688): > 30000 nM
% inhibition at top conc. (NCI-H1703 cells, 96 h): 73.10%
IC50 (NCI-H1781, 96 h, NCI-H1781 cells, 96 h): > 30000 nM
% inhibition at top conc. (NCI-H1792 cells, 96 h): 68.85%
IC50 (NCI-H1915, 96 h, NCI-H1915 cells, 96 h): > 30000 nM
% inhibition at top conc. (NCI-H1975 cells, 96 h): 25.02%
% inhibition at top conc. (NCI-H1993 cells, 96 h): 78.76%
% inhibition at top conc. (NCI-H2087 cells, 96 h): 50.14%
% inhibition at top conc. (NCI-H2170 cells, 96 h): 75.97%
% inhibition at top conc. (NCI-H2228 cells, 96 h): 54.12%
% inhibition at top conc. (NCI-N87, 96 h): 54.19%
IC50 (NK-92MI): 6580 nM
IC50 (NOZ): 710 nM
% inhibition at top conc. (NUGC-3 cells, 96 h): 63.39%
% inhibition at top conc. (NUGC-4 cells, 96 h): 62.77%
IC50 (OCUG-1, OCUG-1): 1250 nM
IC50 (OCUM1, 96 h, OCUM-1 cells, 96 h): > 30000 nM
% inhibition at top conc. (OCUM-1 cells, 96 h): 19.71%
% inhibition at top conc. (OCUM-2D cells, 96 h): 65.33%
% inhibition at top conc. (OCUM-2M cells, 96 h): 66.13%
% inhibition at top conc. (OE19, 96 h): 53.21%
IC50 (OSC19, 96 h, OSC-19 cells, 96 h): > 30000 nM
% inhibition at top conc. (OVCAR-3 cells, 96 h): 46.65%
% inhibition at top conc. (OVCAR-8 cells, 96 h): 75.04%
IC50 (OZ): > 30000 nM
% inhibition at top conc. (PC-9 cells, 96 h): 52.79%
IC50 (PEER): 1870 nM
IC50 (PL45, PL45): 1190 nM
IC50 (RD-ES): > 30000 nM
% inhibition at top conc. (RPMI-2650 cells, 96 h): 52.41%
% inhibition at top conc. (RT4 cells, 96 h): 49.68%
% inhibition at top conc. (SCC-4, 96 h): 26.22%
% inhibition at top conc. (SCH cells, 96 h): 53.08%
IC50 (SF763, SF-763): 760 nM
% inhibition at top conc. (SK-MEL-5, 96 h): 25.67%
% inhibition at top conc. (SK-MEL-28, 96 h): 13.20%
% inhibition at top conc. (SK-OV-3 cells, 96 h): 34.62%
IC50 (SNU620, 96 h, SNU-620 cells, 96 h): > 30000 nM
IC50 (SNU668, 96 h, SNU-668 cells, 96 h): > 30000 nM
% inhibition at top conc. (SNU-1 cells, 96 h): 74.67%
% inhibition at top conc. (SNU-5, 96 h): 54.08%
IC50 (SNU-81): > 30000 nM
IC50 (SNU-216, 96 h, SNU-216 cells, 96 h): > 30000 nM
IC50 (SNU-368): > 30000 nM
IC50 (SNU-484, 96 h, SNU-484 cells, 96 h): > 30000 nM
% inhibition at top conc. (SNU-484 cells, 96 h): 45.94%
IC50 (SNU-601, 96 h, SNU-601 cells, 96 h): 490 nM
% inhibition at top conc. (SNU-601 cells, 96 h): 67.28%
% inhibition at top conc. (SNU-638 cells, 96 h): 56.77%
% inhibition at top conc. (SNU-719 cells, 96 h): 32.64%
IC50 (SNU-739, SNU-739): 20900 nM
% inhibition at top conc. (SNU-761 cells, 96 h): 59.03%
% inhibition at top conc. (SNU-2535 cells, 96 h): 46.87%
IC50 (SNU-C2A): 580 nM
IC50 (SW579, 96 h, SW579 cells, 96 h): > 30000 nM
% inhibition at top conc. (SW684 cells, 96 h): 4.22%
% inhibition at top conc. (SW948 cells, 96 h): 46.17%
IC50 (SW1271, SW1271): > 30000 nM
IC50 (U266B1): > 30000 nM
% inhibition at top conc. (UACC-812 cells, 96 h): 20.05%
% inhibition at top conc. (YCC-1 cells, 96 h): 29.02%
% inhibition at top conc. (YCC-6 cells, 96 h): 56.86%
% inhibition at top conc. (YCC-10, 96 h): 38.86%
IC50 (YCC-11, 96 h, YCC-11 cells, 96 h): > 30000 nM
% inhibition at top conc. (YCC-11 cells, 96 h): 48.65%
% inhibition at top conc. (ZR-75-30, 96 h): 10.01%
